In patent US9409905B2, “Antibacterial compounds and methods for use” (PTC THERAPEUTICS, INC., priority 2011, dated 2016):
In brackets after ≈: the same amount, converted by molar mass. Read-outs that look alike come from different tables or passages of the source.

Columns and labels:
[1] = tested on: E. coli LZ3111; assay: Antibacterial activity, MIC, quinolone resistant strain (Table 2); assay type: cell-based; details: Escherichia coli, LZ3111, read-out: MIC LZ3111
Method in brief: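 Growth inhibition assessed by serial drug dilution in broth; endpoint was absence of macroscopically visible growth, reported as MIC, μg/mL.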

[2] = tested on: Staphylococcus aureus (S. aureus) 29213; assay: Antibacterial activity, microbroth dilution MIC (Table 1); assay type: cell-based
Method in brief: (§1)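 Values are MICs (μg/mL): the smallest drug amount at which macroscopically visible bacterial growth is absent under assay conditions, from a microdilution method in broth.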

[3] = tested on: Escherichia coli (E. coli) BAS849; assay: as above; assay type: cell-based
Method in brief: as §1

[4] = tested on: Pseudomonas aeruginosa (P. aeruginosa) 27853; assay: Antibacterial activity, MIC (Table 5); assay type: cell-based
Method in brief: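 Using a microbroth dilution format, the minimum inhibitory concentration was recorded as the lowest tested concentration that stopped visible bacterial growth, expressed in μg/mL.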

[5] = tested on: A. baumannii MXX2240; assay: Antibacterial activity, MIC, resistant strain (Table 4); assay type: cell-based; details: Acinetobacter baumannii
Method in brief: (§2)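 Compounds are serially diluted in microbroth, bacteria are grown under the test conditions, and growth is then inspected macroscopically. The lowest concentration without visible growth is reported as the MIC (μg/mL).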

[6] = tested on: K. pneumoniae MXX1232; assay: as above; assay type: cell-based; details: Klebsiella pneumoniae
Method in brief: as §2

[7] = tested on: E. coli 25922; assay: Antibacterial activity, microbroth dilution MIC (Table 1); assay type: cell-based, Escherichia coli
Method in brief: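 Broth microdilution against S. aureus 29213, E. coli 25922 and hypersensitive E. coli BAS849. MIC in μg/mL is the lowest drug concentration preventing macroscopically visible growth under test conditions.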

[8] = tested on: Klebsiella pneumoniae (K. pneumoniae) 35657; assay: Antibacterial activity, MIC (Table 4); assay type: cell-based
Method in brief: as §2

[9] = tested on: Acinetobacter baumannii (A. baumannii) BAA747; assay: Antibacterial activity, MIC (Table 4); assay type: cell-based
Method in brief: as §2

[10] = MXX2240, read-out: MIC, MMX2240
[11] = MXX1232, read-out: MIC, MMX1232
[12] = Escherichia coli, 25922, read-out: MIC, 25922
[13] = microbroth dilution, Gram-positive S. aureus 29213, read-out: MIC, 29213
[14] = microbroth dilution, super sensitive Gram-negative E. coli BAS849, read-out: MIC, BAS849
[15] = P. aeruginosa 27853, read-out: MIC, 27853
[16] = MXX2240, resistant A. baumannii MMX2240, multi-drug resistant clinical isolate, read-out: MIC, MMX2240
[17] = MXX1232, resistant K. pneumoniae MMX1232, multi-drug resistant clinical isolate, read-out: MIC, MMX1232
[18] = Escherichia coli, microbroth dilution, control Gram-negative E. coli 25922 strain, read-out: MIC, 25922
[19] = K. pneumoniae 35657, read-out: MIC, 35657
[20] = A. baumannii BAA747, read-out: MIC, BAA747

For `CCc1c(-c2ccc3c4c([nH]c3c2)CN(C)CC4)[nH]c(=O)c(C(=O)O)c1O` [Cpd 446, 5-ethyl-4-(hydroxy)-6-(2-methyl-2,3,4,9-tetrahydro-1H-pyrido[3,4-b]indol-7-yl)-2-oxo-1,2-dihydropyridine-3-carboxylic acid], the MIC [1] was 1 to 3.5 µg/mL (≈ 2.72 to 9.53 µM), the MIC ([2]; read-out: MIC, 29213) was 12.5 to 150 µg/mL (≈ 34 to 408 µM) and the MIC ([3]; read-out: MIC, BAS849) was < 1 µg/mL. For the same compound, the MIC ([4]; read-out: MIC, 27853) was 3.5 to 12.5 µg/mL (≈ 9.53 to 34 µM), the MIC [5, 10] was 12.5 to 150 µg/mL (≈ 34 to 408 µM) and the MIC [6, 11] was 12.5 to 150 µg/mL (≈ 34 to 408 µM). For the same compound, the MIC [7, 12] was 1 to 3.5 µg/mL (≈ 2.72 to 9.53 µM), the MIC ([8]; read-out: MIC, 35657) was < 1 µg/mL and the MIC ([9]; BAA747, read-out: MIC, BAA747) was 3.5 to 12.5 µg/mL (≈ 9.53 to 34 µM).
`CCc1cc(C(=O)O)c(=O)[nH]c1-c1ccc2ncnn2c1.Cl` [Cpd 49, 6-([1,2,4]triazolo[1,5-a]pyridin-6-yl)-5-ethyl-2-oxo-1,2-dihydropyridine-3-carboxylic acid hydrochloride] showed an MIC [1] of 12.5 to 150 µg/mL, an MIC [2, 13] of 12.5 to 150 µg/mL and an MIC [3, 14] of 12.5 to 150 µg/mL. For the same compound, the MIC [4, 15] was 12.5 to 150 µg/mL, the MIC [5, 16] was 12.5 to 150 µg/mL and the MIC [6, 17] was 12.5 to 150 µg/mL. For the same compound, the MIC [7, 18] was 12.5 to 150 µg/mL, the MIC [8, 19] was 12.5 to 150 µg/mL and the MIC [9, 20] was 12.5 to 150 µg/mL.
For `CCCc1ccc2c(c1)cc(-c1[nH]c(=O)c(C(=O)O)c(O)c1CC)n2C` [Cpd 409, 5-ethyl-4-hydroxy-6-(1-methyl-5-propyl-1H-indol-2-yl)-2-oxo-1,2-dihydropyridine-3-carboxylic acid], the MIC [1] was 12.5 to 150 µg/mL (≈ 35.3 to 423 µM), the MIC [2, 13] was 3.5 to 12.5 µg/mL (≈ 9.88 to 35.3 µM) and the MIC [3, 14] was 1 to 3.5 µg/mL (≈ 2.82 to 9.88 µM). The MIC [4, 15] was 12.5 to 150 µg/mL (≈ 35.3 to 423 µM), the MIC [5, 16] was 12.5 to 150 µg/mL (≈ 35.3 to 423 µM) and the MIC [6, 17] was 12.5 to 150 µg/mL (≈ 35.3 to 423 µM). It also gave an MIC [7, 18] of 12.5 to 150 µg/mL (≈ 35.3 to 423 µM), an MIC [8, 19] of 12.5 to 150 µg/mL (≈ 35.3 to 423 µM) and an MIC [9, 20] of 12.5 to 150 µg/mL (≈ 35.3 to 423 µM).
In the case of `Cc1c(-c2cnc3cc[nH]c3c2)[nH]c(=O)c(C(=O)O)c1O` [Cpd 431, 4-hydroxy-5-methyl-2-oxo-6-(1H-pyrrolo[3,2-b]pyridin-6-yl)-1,2-dihydropyridine-3-carboxylic acid], the MIC [1] is reported as 12.5 to 150 µg/mL (≈ 43.8 to 526 µM), the MIC [2, 13] is reported as 12.5 to 150 µg/mL (≈ 43.8 to 526 µM) and the MIC [3, 14] is reported as 12.5 to 150 µg/mL (≈ 43.8 to 526 µM). The MIC [4, 15] was 12.5 to 150 µg/mL (≈ 43.8 to 526 µM), the MIC [5, 16] was 12.5 to 150 µg/mL (≈ 43.8 to 526 µM) and the MIC [6, 17] was 12.5 to 150 µg/mL (≈ 43.8 to 526 µM). It also gave an MIC [7, 18] of 12.5 to 150 µg/mL (≈ 43.8 to 526 µM), an MIC [8, 19] of 12.5 to 150 µg/mL (≈ 43.8 to 526 µM) and an MIC [9, 20] of 12.5 to 150 µg/mL (≈ 43.8 to 526 µM).
In the case of `CCc1c(-c2ccc3c4c([nH]c3c2)CN(CC)CC4)[nH]c(=O)c(C(=O)O)c1O` [Cpd 447, 5-ethyl-6-(2-ethyl-2,3,4,9-tetrahydro-1H-pyrido[3,4-b]indol-7-yl)-4-hydroxy-2-oxo-1,2-dihydropyridine-3-carboxylic acid], the MIC [1] is reported as 3.5 to 12.5 µg/mL (≈ 9.18 to 32.8 µM), the MIC ([2]; read-out: MIC, 29213) is reported as 12.5 to 150 µg/mL (≈ 32.8 to 393 µM) and the MIC ([3]; read-out: MIC, BAS849) is reported as < 1 µg/mL. It also gave an MIC ([4]; read-out: MIC, 27853) of 12.5 to 150 µg/mL (≈ 32.8 to 393 µM), an MIC [5, 10] of 12.5 to 150 µg/mL (≈ 32.8 to 393 µM) and an MIC [6, 11] of 12.5 to 150 µg/mL (≈ 32.8 to 393 µM). For the same compound, the MIC [7, 12] was < 1 µg/mL, the MIC ([8]; read-out: MIC, 35657) was < 1 µg/mL and the MIC ([9]; BAA747, read-out: MIC, BAA747) was 3.5 to 12.5 µg/mL (≈ 9.18 to 32.8 µM).
For `CCN(CC)Cc1cc2cc(-c3[nH]c(=O)c(C(=O)O)c(O)c3C)ccc2n1C` [Cpd 357, 6-(2-((diethylamino)methyl)-1-methyl-1H-indol-5-yl)-4-hydroxy-5-methyl-2-oxo-1,2-dihydropyridine-3-carboxylic acid], the MIC [1] was 1 to 3.5 µg/mL (≈ 2.61 to 9.13 µM), the MIC [2, 13] was 12.5 to 150 µg/mL (≈ 32.6 to 391 µM) and the MIC [3, 14] was < 1 µg/mL. For the same compound, the MIC [4, 15] was 12.5 to 150 µg/mL (≈ 32.6 to 391 µM), the MIC [5, 16] was 3.5 to 12.5 µg/mL (≈ 9.13 to 32.6 µM) and the MIC [6, 17] was 12.5 to 150 µg/mL (≈ 32.6 to 391 µM). The MIC [7, 18] was 3.5 to 12.5 µg/mL (≈ 9.13 to 32.6 µM), the MIC [8, 19] was 3.5 to 12.5 µg/mL (≈ 9.13 to 32.6 µM) and the MIC [9, 20] was 3.5 to 12.5 µg/mL (≈ 9.13 to 32.6 µM).
Compound `CNCCNCc1cc2cc(-c3[nH]c(=O)c(C(=O)O)c(O)c3C)ccc2n1C` [Cpd 344, 4-hydroxy-5-methyl-6-(1-methyl-2-((2-(methylamino)ethylamino)methyl)-1H-indol-5-yl)-2-oxo-1,2-dihydropyridine-3-carboxylic acid] has an MIC [1] of 12.5 to 150 µg/mL (≈ 32.5 to 390 µM), an MIC [2, 13] of 12.5 to 150 µg/mL (≈ 32.5 to 390 µM) and an MIC [3, 14] of 12.5 to 150 µg/mL (≈ 32.5 to 390 µM). It also gave an MIC [4, 15] of 12.5 to 150 µg/mL (≈ 32.5 to 390 µM), an MIC [5, 16] of 12.5 to 150 µg/mL (≈ 32.5 to 390 µM) and an MIC [6, 17] of 12.5 to 150 µg/mL (≈ 32.5 to 390 µM). It also gave an MIC [7, 18] of 12.5 to 150 µg/mL (≈ 32.5 to 390 µM), an MIC [8, 19] of 12.5 to 150 µg/mL (≈ 32.5 to 390 µM) and an MIC [9, 20] of 12.5 to 150 µg/mL (≈ 32.5 to 390 µM).
For `C=CC1C(O)=C(C(=O)O)C(=O)NC1c1ccc2c(ccn2C)c1` (stereo not drawn) [Cpd 375, 4-hydroxy-6-(1-methyl-1H-indol-5-yl)-2-oxo-5-vinyl-1,2,5,6-tetrahydropyridine-3-carboxylic acid], the MIC [1] was 1 to 3.5 µg/mL (≈ 3.2 to 11.2 µM), the MIC [2, 13] was 12.5 to 150 µg/mL (≈ 40 to 480 µM) and the MIC [3, 14] was < 1 µg/mL. It also gave an MIC [4, 15] of 12.5 to 150 µg/mL (≈ 40 to 480 µM), an MIC [5, 16] of 1 to 3.5 µg/mL (≈ 3.2 to 11.2 µM) and an MIC [6, 17] of 12.5 to 150 µg/mL (≈ 40 to 480 µM). The MIC [7, 18] was 12.5 to 150 µg/mL (≈ 40 to 480 µM), the MIC [8, 19] was 12.5 to 150 µg/mL (≈ 40 to 480 µM) and the MIC [9, 20] was 12.5 to 150 µg/mL (≈ 40 to 480 µM).
